*1 amine or outer side, *2 acyl side, *3 side chain or, on linkers, in order; H or OH if unused. Where a SMILES comes first, the peptide text is derived from it. Bridges are numbered along the chain shown (N, C = ends). [ ]: non-standard residue; d: D form. Trp(2-yl) = O=C([C@H](Cc1c([*:3])[nH]c2ccccc12)N[*:1])[*:2]; Leu(4R-OH,5-OH) = C[C@](O)(CO)C[C@H](N)C(=O)O; cisHyp = O=C(O)[C@@H]1C[C@H](O)CN1
T1: Solute carrier organic anion transporter family member 1B1 (Homo sapiens, UniProt Q9Y6L6)
T1 sequence (Q9Y6L6 whole entry): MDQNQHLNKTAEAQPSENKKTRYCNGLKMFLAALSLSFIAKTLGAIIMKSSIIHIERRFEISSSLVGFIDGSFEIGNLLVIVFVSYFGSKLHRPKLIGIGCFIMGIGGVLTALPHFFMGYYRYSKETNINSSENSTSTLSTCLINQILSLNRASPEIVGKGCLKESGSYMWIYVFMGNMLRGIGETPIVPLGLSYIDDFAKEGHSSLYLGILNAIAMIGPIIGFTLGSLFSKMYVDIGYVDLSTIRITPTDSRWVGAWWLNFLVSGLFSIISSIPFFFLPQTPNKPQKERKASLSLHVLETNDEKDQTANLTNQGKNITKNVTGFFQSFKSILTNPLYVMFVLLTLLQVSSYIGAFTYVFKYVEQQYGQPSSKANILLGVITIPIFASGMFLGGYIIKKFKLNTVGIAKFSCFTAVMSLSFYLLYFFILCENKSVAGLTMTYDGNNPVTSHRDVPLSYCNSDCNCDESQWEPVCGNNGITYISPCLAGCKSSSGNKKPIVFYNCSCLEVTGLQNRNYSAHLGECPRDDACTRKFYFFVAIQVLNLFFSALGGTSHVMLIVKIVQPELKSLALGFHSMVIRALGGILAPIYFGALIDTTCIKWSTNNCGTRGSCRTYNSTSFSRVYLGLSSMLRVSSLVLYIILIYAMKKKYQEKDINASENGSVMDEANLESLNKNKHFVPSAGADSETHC

B1: Solute carrier organic anion transporter family member 1B1 (Homo sapiens) (protein)
chain: T1 sequence (Q9Y6L6 whole entry)

Columns and labels:
Assay type in all cases: functional, cell-based
[1] = target: T1, Solute carrier organic anion transporter family member 1B1; assay: TP_TRANSPORTER: inhibition of Phalloidin uptake (Phalloidin: 1 uM) in OATP-C-expressing HEK293 cells
[2] = target: T1, Solute carrier organic anion transporter family member 1B1; assay: TP_TRANSPORTER: inhibition of Phalloidin uptake (Phalloidin: 1 uM) by alpha-Amanitin at a concentration of 20 u M in OATP-C-expressing HEK293 cells; details: hek293, 20 µM
[3] = target: Canalicular multispecific organic anion transporter 1/Solute carrier organic anion transporter family member 1B1 (Homo sapiens, UniProt Q92887+Q9Y6L6); assay: TP_TRANSPORTER: transepithelial transport (basal to apical) of Phalloidin at a concentration of 1 uM in MRP2- and OATP-C-expressing MDCKII cells; details: dog, mdck-ii
[4] = substrate: C[C@@H]1NC(=O)[C@H](C[C@@](C)(O)CO)NC(=O)[C@@H]2Cc3c([nH]c4ccccc34)SC[C@H](NC(=O)[C@@H]([C@H](C)O)NC1=O)C(=O)N1C[C@@H](O)C[C@H]1C(=O)N[C@@H](C)C(=O)N2; assay: TP_TRANSPORTER: uptake in OATP-C-expressing HEK293 cells

Row | Molecule | IC50 [1] [nM] | other results
1 | CC(C)[C@@H]1NC(=O)[C@@H](Cc2ccccc2)NC(=O)[C@H](Cc2ccccc2)NC(=O)[C@@H]2CCCN2C(=O)[C@@H]2CCCN2C(=O)[C@H](Cc2ccccc2)NC(=O)[C@@H](Cc2ccccc2)NC(=O)[C@H](C)NC(=O)[C@@H]2CCCN2C(=O)[C@@H]2CCCN2C1=O [ANTAMANIDE] | 1000 | 
2 | O=C1OC(c2ccc(O)c(S(=O)(=O)O)c2)(c2ccc(O)c(S(=O)(=O)O)c2)c2c(Br)c(Br)c(Br)c(Br)c21 [SULFOBROMOPHTHALEIN SODIUM] | 50 | 
3 | CO[C@H]1C[C@@H]2CC[C@@H](C)[C@@](O)(O2)C(=O)C(=O)N2CCCC[C@H]2C(=O)O[C@H]([C@H](C)C[C@@H]2CC[C@@H](O)[C@H](OC)C2)CC(=O)[C@H](C)/C=C(\C)[C@@H](O)[C@@H](OC)C(=O)[C@H](C)C[C@H](C)/C=C/C=C/C=C/1C [SIROLIMUS] | 1100 | 
4 | CC[C@H](C)[C@@H]1NC(=O)CNC(=O)[C@@H]2Cc3c([nH]c4cc(O)ccc34)[S+]([O-])C[C@@H](NC(=O)CNC1=O)C(=O)N[C@@H](CC(N)=O)C(=O)N1C[C@H](O)C[C@H]1C(=O)N[C@@H]([C@@H](C)[C@@H](O)CO)C(=O)N2 (stereo partly drawn) [alpha-Amanitin] |  | Activity [2]: is not an inhibitor [-]
5 | C=CC[C@@H]1/C=C(\C)C[C@H](C)C[C@H](OC)[C@H]2O[C@@](O)(C(=O)C(=O)N3CCCC[C@H]3C(=O)O[C@H](/C(C)=C/[C@@H]3CC[C@@H](O)[C@H](OC)C3)[C@H](C)[C@@H](O)CC1=O)[C@H](C)C[C@@H]2OC [TACROLIMUS ANHYDROUS] | 3700 | 
6 | C[C@@H]1NC(=O)[C@H](C[C@@](C)(O)CO)NC(=O)[C@@H]2Cc3c([nH]c4ccccc34)SC[C@H](NC(=O)[C@@H]([C@H](C)O)NC1=O)C(=O)N1C[C@@H](O)C[C@H]1C(=O)N[C@@H](C)C(=O)N2 [PHALLOIDIN] (cyclo(A[dT]C[cisHyp]A[Trp(2-yl)][Leu(4R-OH,5-OH)]); thioether 3-6) |  | Activity [3]: substrate [+]
7 | B1 |  | Km [4]: 39 µM
